Reference: patent publication US7709495B2, “Methods and reagents for the treatment of inflammatory disorders” (CombinatoRx, Incorporated, priority 2003, dated 2010)
Where two headings read alike, the source gives them in different places.

System: TNFα secretion
Test: TNFα secretion assay (ELISA), phorbol 12-myristate 13-acetate/ionomycin stimulated white blood cells
Format: cell-based
Details: Homo sapiens, PBMC, read-out: % Inhibition TNFα PBMC PI
Protocol: The compound dilution matrix was assayed for the suppression of phorbol 12-myristate 13 acetate/ionomycin stimulated IL-1 and TNFα secretion as well as the suppression of lipopolysaccharide-stimulated TNFα secretion from human white blood cells using the ELISA method, as described below.
A stock solution containing prednisolone (0.36 mg/ml) was prepared in DMSO. A stock solution containing ibudilast (1.84 mg/ml) was prepared in DMSO. Master plates were prepared for dilutions of the stock solutions above.
The final single agent plates were generated by transferring 1 μL of stock solution from the specific master plate to separate dilution plates containing 99 μL of media (RPMI; Gibco BRL, #11875-085), 10% fetal bovine serum (Gibco BRL, #25140-097), 2% penicillin/streptomycin (Gibco BRL, #15140-122)) using the Packard Mini-Trak liquid handler. The dilution plates were then mixed and a 10 μL aliquot transferred from each dilution plate to the final assay plate (polystyrene 384-well plate (NalgeNunc)), which had been pre-filled with 30 μL/well RPMI media containing 33 ng/mL phorbol 12-myristate 13-acetate (Sigma, P-1585) and 2.475 ng/mL ionomycin (Sigma, I-0634) or alternatively for the LPS stimulated assay RPMI media containing 2 μg/ml lipopolysaccharide (Sigma, L-4130).
The effects of test compound combinations on TNFα secretion were assayed in white blood cells from human buffy coat stimulated with phorbol 12-myistate 13-acetate, or lipopolysaccharide as follows. Human white blood cells from buffy coat were diluted 1:50 in media (RPMI; Gibco BRL, #11875-085), 10% fetal bovine serum (Gibco BRL, #25140-097), 2% penicillin/streptomycin (Gibco BRL, #15140-122)) and 50 μL of the diluted white blood cells were placed in each well of the final assay plate created in the above section. After 16-18 hours of incubation at 37° C. with 5% CO2 in a humidified incubator, the plate was centrifuged and the supernatant transferred to a white opaque polystyrene 384 well plate (NalgeNunc, Maxisorb) coated with an anti-TNFα antibody (PharMingen, #551220). After a two-hour incubation, the plate was washed (Tecan Powerwasher 384) with PBS containing 0.1% Tween 20 and incubated for one additional hour with biotin labeled anti-TNFα antibody (PharMingen, #554511) and HRP coupled to streptavidin (PharMingen, #13047E). The plate was then washed again with 0.1% Tween 20/PBS. An HRP-luminescent substrate was added to each well, and the light intensity of each well was measured using a plate luminometer.
The percent inhibition (% I) for each well was calculated using the following formula: % I=[(avg. untreated wells−treated well)/(avg. untreated wells)]×100
The average untreated well value (avg. untreated wells) is the arithmetic mean of 30 wells from the same assay plate treated with vehicle alone.
TNFα secretion was measured by ELISA as described above after stimulation with phorbol 12-myristate 13-acetate and ionomycin. The effects of varying concentrations of ibudilast, prednisolone and a combination of ibudilast and prednisolone were compared to control wells.

SMILES: CC(C)C(=O)c1c(C(C)C)nn2ccccc12 [Ibudilast, ibudilast]
- inhibition at 0.062 µM (ibudilast 0.062 μM alone): 2.8%
- inhibition at 0.12 µM (ibudilast 0.12 μM alone): 2.5%
- inhibition at 0.25 µM (ibudilast 0.25 μM alone): 6.5%
- inhibition at 0.5 µM (ibudilast 0.5 μM alone): 18%
- inhibition at 1 µM (ibudilast 1 μM alone): 28%
- inhibition at 2 µM (ibudilast 2 μM alone): 31%
- inhibition at 4 µM (ibudilast 4 μM alone): 33%
- inhibition at 8 µM (ibudilast 8 μM alone): 40%

SMILES: C[C@]12C=CC(=O)C=C1CC[C@@H]1[C@@H]2[C@@H](O)C[C@@]2(C)[C@H]1CC[C@]2(O)C(=O)CO [Prednisolone, prednisolone]
- inhibition at 0.0078 µM (prednisolone 0.0078 μM alone): 12%
- inhibition at 0.016 µM (prednisolone 0.016 μM alone): 17%
- inhibition at 0.031 µM (prednisolone 0.031 μM alone): 22%
- inhibition at 0.062 µM (prednisolone 0.062 μM alone): 22%
- inhibition at 0.12 µM (prednisolone 0.12 μM alone): 29%
- inhibition at 0.25 µM (prednisolone 0.25 μM alone): 32%
- inhibition at 0.5 µM (prednisolone 0.5 μM alone): 33%
- inhibition at 1 µM (prednisolone 1 μM alone): 36%
